Assay results: PMC12340637, “Transport of Small Aliphatic Amines by Polyspecific Solute Carriers: Deciphering Structure–Function Relationships” (ACS Pharmacology & Translational Science, 2025)
Marks after values point to notes of the source that are not given here.

Experiments:
[1] = target: T1, OCT3 (SLC22A3) (Homo sapiens, UniProt O75751); assay: Cellular uptake into OCT3-overexpressing HEK293 cells vs EV control cells (HPLC-MS/MS); conditions: for substrate activity at OCT3 (in words): uptake ratio ≥2 = notable transport; for uptake ratio OCT3 (transporter-overexpressing cells over EV control cells): mean (±SD, N): 2 min, HEK293
T1 sequence (O75751 1-556): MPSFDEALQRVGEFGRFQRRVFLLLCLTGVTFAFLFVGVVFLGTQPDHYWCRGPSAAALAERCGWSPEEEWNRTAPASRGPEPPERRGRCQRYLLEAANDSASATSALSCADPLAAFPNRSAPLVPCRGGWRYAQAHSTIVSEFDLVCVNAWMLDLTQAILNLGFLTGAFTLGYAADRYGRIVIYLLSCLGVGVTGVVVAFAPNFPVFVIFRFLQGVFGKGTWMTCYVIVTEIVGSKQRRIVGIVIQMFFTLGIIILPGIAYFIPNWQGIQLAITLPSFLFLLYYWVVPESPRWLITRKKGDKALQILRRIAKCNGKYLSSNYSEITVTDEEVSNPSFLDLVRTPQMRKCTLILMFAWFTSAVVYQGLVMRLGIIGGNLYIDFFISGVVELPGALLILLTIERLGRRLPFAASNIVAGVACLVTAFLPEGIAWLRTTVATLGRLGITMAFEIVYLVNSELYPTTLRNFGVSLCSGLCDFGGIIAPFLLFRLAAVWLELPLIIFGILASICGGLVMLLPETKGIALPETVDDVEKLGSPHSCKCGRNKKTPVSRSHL

[2] = target: T2, OCT1 (SLC22A1) (Homo sapiens, UniProt O15245); assay: Cellular uptake into OCT1-overexpressing HEK293 cells vs EV control cells (HPLC-MS/MS); conditions: for uptake ratio OCT1 (transporter-overexpressing cells over EV control cells): mean (±SD, N): 2 min, HEK293
T2 sequence (O15245 1-554): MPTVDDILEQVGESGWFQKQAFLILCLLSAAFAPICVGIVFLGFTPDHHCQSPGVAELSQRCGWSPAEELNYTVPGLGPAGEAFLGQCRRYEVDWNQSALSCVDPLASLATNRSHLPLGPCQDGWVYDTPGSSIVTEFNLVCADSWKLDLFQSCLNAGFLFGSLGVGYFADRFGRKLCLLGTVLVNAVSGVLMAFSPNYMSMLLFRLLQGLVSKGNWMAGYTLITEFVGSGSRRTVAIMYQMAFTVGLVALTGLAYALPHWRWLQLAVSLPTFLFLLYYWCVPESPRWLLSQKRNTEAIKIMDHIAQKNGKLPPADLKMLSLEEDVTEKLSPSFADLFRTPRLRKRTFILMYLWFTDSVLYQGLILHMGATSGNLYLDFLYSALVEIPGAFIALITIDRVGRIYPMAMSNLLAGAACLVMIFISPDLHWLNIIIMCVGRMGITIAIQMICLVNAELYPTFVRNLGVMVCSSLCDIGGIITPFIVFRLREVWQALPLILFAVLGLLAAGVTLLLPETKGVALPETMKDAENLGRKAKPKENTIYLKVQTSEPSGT

[3] = target: T3, MATE1 (SLC47A1) (Homo sapiens, UniProt Q96FL8); assay: Cellular uptake into MATE1-overexpressing HEK293 cells vs EV control cells (HPLC-MS/MS); conditions: for uptake ratio MATE1 (transporter-overexpressing cells over EV control cells): mean (±SD, N): 2.5 μM substrate, 1 min, 30 mM NH4Cl preincubation, HEK293
T3 sequence (Q96FL8 1-570): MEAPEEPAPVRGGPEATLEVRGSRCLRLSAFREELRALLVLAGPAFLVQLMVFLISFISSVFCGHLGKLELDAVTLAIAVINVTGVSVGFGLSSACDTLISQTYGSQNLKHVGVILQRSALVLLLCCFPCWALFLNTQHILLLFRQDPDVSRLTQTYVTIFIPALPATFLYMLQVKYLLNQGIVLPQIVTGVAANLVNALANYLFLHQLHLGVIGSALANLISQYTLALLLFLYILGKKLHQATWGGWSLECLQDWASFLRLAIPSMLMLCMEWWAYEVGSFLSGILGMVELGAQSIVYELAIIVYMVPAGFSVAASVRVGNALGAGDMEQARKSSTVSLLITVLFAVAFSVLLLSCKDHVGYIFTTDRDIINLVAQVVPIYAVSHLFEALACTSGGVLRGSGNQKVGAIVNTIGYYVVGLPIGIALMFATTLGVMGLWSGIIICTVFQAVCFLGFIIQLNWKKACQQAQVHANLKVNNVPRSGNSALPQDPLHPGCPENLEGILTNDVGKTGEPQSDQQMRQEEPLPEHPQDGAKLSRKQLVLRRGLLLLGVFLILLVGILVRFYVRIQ

[4] = target: MATE2-K (SLC47A2) (Homo sapiens, UniProt Q86VL8); assay: Cellular uptake into MATE2-K-overexpressing HEK293 cells vs EV control cells (HPLC-MS/MS); conditions: 2.5 μM substrate, 1 min, 30 mM NH4Cl preincubation, HEK293
Sequence of MATE2-K (SLC47A2) (Q86VL8 1-566 isoform Q86VL8-3): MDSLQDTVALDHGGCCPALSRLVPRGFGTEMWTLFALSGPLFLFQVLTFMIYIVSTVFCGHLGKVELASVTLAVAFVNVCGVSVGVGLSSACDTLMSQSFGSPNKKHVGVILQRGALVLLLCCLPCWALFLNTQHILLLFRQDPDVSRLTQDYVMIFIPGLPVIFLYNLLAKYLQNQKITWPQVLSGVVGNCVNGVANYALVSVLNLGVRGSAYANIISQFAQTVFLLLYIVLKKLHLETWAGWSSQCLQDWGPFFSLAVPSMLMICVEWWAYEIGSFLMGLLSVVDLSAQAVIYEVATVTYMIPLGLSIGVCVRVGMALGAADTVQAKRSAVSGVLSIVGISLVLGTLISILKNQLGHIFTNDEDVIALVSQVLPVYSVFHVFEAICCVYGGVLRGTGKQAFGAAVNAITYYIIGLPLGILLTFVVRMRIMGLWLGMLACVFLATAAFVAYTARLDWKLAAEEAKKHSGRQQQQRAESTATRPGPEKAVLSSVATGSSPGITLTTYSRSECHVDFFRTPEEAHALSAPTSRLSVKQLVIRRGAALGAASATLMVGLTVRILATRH

[5] = target: T4, OCT2 (SLC22A2) (Homo sapiens, UniProt O15244); assay: Cellular uptake into OCT2-overexpressing HEK293 cells vs EV control cells (HPLC-MS/MS); conditions: for K m (±SEM) / v max (±SEM): OCT2, net uptake, Michaelis–Menten; for uptake ratio OCT2 (transporter-overexpressing cells over EV control cells): mean (±SD, N): 2 min, HEK293
T4 sequence (O15244 1-555): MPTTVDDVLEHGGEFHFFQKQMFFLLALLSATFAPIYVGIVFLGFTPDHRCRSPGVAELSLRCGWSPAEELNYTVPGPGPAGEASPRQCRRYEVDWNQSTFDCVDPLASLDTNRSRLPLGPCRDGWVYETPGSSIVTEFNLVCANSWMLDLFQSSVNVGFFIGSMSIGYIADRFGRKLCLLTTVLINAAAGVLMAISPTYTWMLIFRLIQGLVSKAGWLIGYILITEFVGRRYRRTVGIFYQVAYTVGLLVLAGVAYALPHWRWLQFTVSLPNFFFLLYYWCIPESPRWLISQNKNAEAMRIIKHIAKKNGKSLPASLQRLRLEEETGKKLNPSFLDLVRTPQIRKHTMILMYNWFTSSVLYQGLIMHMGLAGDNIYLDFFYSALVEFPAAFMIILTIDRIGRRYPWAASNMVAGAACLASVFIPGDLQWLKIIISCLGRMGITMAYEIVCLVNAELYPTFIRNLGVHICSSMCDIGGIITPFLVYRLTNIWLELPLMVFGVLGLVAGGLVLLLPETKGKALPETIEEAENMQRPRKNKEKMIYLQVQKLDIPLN

[6] = OCT3, net uptake, Michaelis–Menten
[7] = OCT1, net uptake, Michaelis–Menten
[8] = uptake ratio ≥2 = notable transport
[9] = MATE1, net uptake, Michaelis–Menten

Row | uptake ratio MATE2K (transporter-overexpressing cells over EV control cells): mean (±SD, N) [4] | K m (±SEM) [5] | v max (±SEM) [5] | uptake ratio MATE1 (transporter-overexpressing cells over EV control cells): mean (±SD, N) [3] | uptake ratio OCT3 (transporter-overexpressing cells over EV control cells): mean (±SD, N) ([1]; 10 μM substrate) | uptake ratio OCT1 (transporter-overexpressing cells over EV control cells): mean (±SD, N) ([2]; 10 μM substrate) | uptake ratio OCT2 (transporter-overexpressing cells over EV control cells): mean (±SD, N) ([5]; 10 μM substrate) | SMILES | further results
1 | 1.4 (0.3, 3) | 1176 (±273) μM | 16,933 (±2577) pmol/mg protein/min | – | – | – | – | NCCCCCCO [6-amino-1-hexanol] | K m (±SEM) [1, 6]: 1168 (±151) μM; v max (±SEM) [1, 6]: 4675 (±384) pmol/mg protein/min; substrate activity at OCT3 (in words) [1]: notable transport; K m (±SEM) [2, 7]: 487 (±171) μM; v max (±SEM) [2, 7]: 1656 (±294) pmol/mg protein/min; substrate activity at OCT1 (in words) [2, 8]: notable transport; K m (±SEM) [3, 9]: 253 (±47) μM; v max (±SEM) [3, 9]: 14,115 (±1479) pmol/mg protein/min; substrate activity at MATE1 (in words) [3, 8]: notable transport; substrate activity at OCT2 (in words) [5, 8]: notable transport
2 | 1.0 (0.1, 3) | – | – | 0.9 (0.2, 3) | – | – | – | CCC(C)(C)N [tert-amylamine] | uptake ratio OCT3 (transporter-overexpressing cells over EV control cells): mean (±SD, N) ([1]; 2.5 μM substrate (§)): 0.8 (0.1, 3); uptake ratio OCT1 (transporter-overexpressing cells over EV control cells): mean (±SD, N) ([2]; 2.5 μM substrate (§)): 1.0 (0.3, 3); uptake ratio OCT2 (transporter-overexpressing cells over EV control cells): mean (±SD, N) ([5]; 2.5 μM substrate (§)): 4.7 (2.1, 3)
3 | 1.1 (0.4, 4) | – | – | 0.8 (0.2, 4) | 1.0 (0.2, 3) | 1.2 (0.2, 3) | 2.6 (1.0, 4) ^a | CNCCCO [3-methylamino-1-propanol] | –
4 | 1.4 (0.3, 4) | – | – | 1.0 (0.3, 4) | 1.85 (1.17, 6) | 2.5 (1.9, 6) | 4.2 (3.1, 6) ^a | CCCCCCCN [heptylamine] | –
5 | 0.9 (0.3, 3) | 1243 (±938) μM | 3103 (±1458) pmol/mg protein/min | 1.0 (0.01, 3) | – | – | – | NCCCCO [4-amino-1-butanol] | uptake ratio OCT3 (transporter-overexpressing cells over EV control cells): mean (±SD, N) ([1]; 2.5 μM substrate (§)): 1.1 (0.3, 3); uptake ratio OCT1 (transporter-overexpressing cells over EV control cells): mean (±SD, N) ([2]; 2.5 μM substrate (§)): 1.1 (0.3, 3); uptake ratio OCT2 (transporter-overexpressing cells over EV control cells): mean (±SD, N) ([5]; 2.5 μM substrate (§)): 5.4 (1.1, 3) ^a
6 | 0.8 (0.1, 3) | 65 (±91) μM | 110 (±56) pmol/mg protein/min | 1.1 (0.1, 3) | 1.6 (0.3, 3) | 1.4 (0.6, 5) | 3.7 (2.4, 3) | NCC(O)CN [1,3-diamino-2-propanol] | –
7 | – | – | – | – | – | – | – | NCCN(CCN)CCN [tris(2-aminoethyl)amine] | substrate activity at OCT3 (in words) [1]: did not show any substrate activity
